Experiments:
Assay type in all cases: cell-based, human
[1] = system: active, cleaved form of caspase 3; assay: Western blot for active caspase-3; settings: BJ-TERT/LT/ST/RAS^V12 cells
Procedure: BJ-TERT/LT/ST/RAS^V12 cells were seeded prior to the experiment at 5×10^5 cells in 60 mm dishes. The cells were treated with 5 μg/ml erastin (9 μM) for 2, 4, 6, 8 or 10 hours. One dish was maintained for camptothecin treatment (0.4 μg/ml for 24 h) as a positive control. Cells were lysed after each time point in lysis buffer (50 mM HEPES KOH pH […] NaCl, 2 mM EDTA, 0.5% Triton X-100, 1.5 mM Na3VO4, 50 mM NaF, 10 mM sodium pyrophosphate, 10 mM sodium beta-glycerophosphate and protease inhibitor tablet (Roche)). Protein content was quantified using a Biorad protein assay reagent. Equal amounts of protein were resolved on 16% SDS-polyacrylamide gel. The electrophoresed proteins were transblotted onto a PVDF membrane, blocked with 5% milk and incubated with anti-active caspase-3 polyclonal antibody (BD Pharmingen) at 1:1500 dilution overnight at 4° C. The membrane was then incubated in anti-rabbit-HRP (Santa Cruz Biotechnology) at 1:3000 dilution for 1 hour and developed with an enhanced chemiluminescence mixture (NEN life science, Renaissance). To test for equivalent loading in each lane, blots were stripped, blocked, and probed with an anti-eIF-4E antibody (BD Transduction laboratories) at 1:1000 dilution.

[2] = system: BJ-TERT/LT/ST/RAS^V12 cells; assay: Annexin V-FITC apoptosis assay; settings: untreated 6%
Procedure: BJ-TERT/LT/ST/RAS^V12 cells were seeded at 1×10^6 cells per dish in 100 mm dishes and allowed to grow overnight. Cells were treated with erastin (5 or 10 μg/ml) for 6, 8 or 11 h. A camptothecin-treated (0.4 μg/ml) control was maintained, treated at the time of seeding for 20 hours. After the treatment, cells were harvested with trypsin/EDTA and washed once with fresh medium containing serum and then twice with phosphate buffered saline. Cells were resuspended in 1× binding buffer (BD Pharmingen) at a concentration of 1×10^6 cells/mi. 100 μl (1×10^5 cells) was incubated with 5 μl of Annexin V- FITC (BD Pharmingen) and propidium iodiode (BD Pharmingen) for 15 minutes in the dark at room temperature. Then 400 μl of the 1× binding buffer was added and the cells analyzed by flow cytometry (Becton-Dickinson). Data were acquired and analyzed using Cellquest software.

[3] = system: BJ-TERT/LT/ST/RAS^V12 cells; assay: DNA fragmentation (DNA ladder)
[4] = system: BJ-TERT/LT/ST/RAS^V12 cells; assay: Block of compound-induced cell death by pan-caspase inhibitor; settings: 50 μM Boc-Asp(Ome)-fluoromethyl ketone
[5] = system: BJ-TERT/LT/ST/RAS^V12 cells; assay: Nuclear morphology assay; settings: 18 hours
From the text: Applicants sought to characterize the type of cell death induced by CPT and erastin in tumorigenic BJ-TERT/LT/ST/RAS^V12 cells. […] To determine whether erastin or CPT induces apoptosis in their system, Applicants monitored the nuclear morphology of CPT- and erastin-treated tumorigenic cells using fluorescence microscopy. […] Since nuclear morphological change is required of apoptotic cells, Applicants conclude that cell death induced by erastin is non-apoptotic. […] Additionally, nuclei remained intact in erastin-treated tumor cells (FIG. 9).
200,000 tumorigenic BJ-TERT/LT/ST/RAS^V12 cells were seeded in 2 mL on glass coverslips in each well of a six-well dish, treated with nothing (NT), 9 μM erastin or 1.1 μM camptothecin (CPT) in growth medium for 18 hours while incubating at 37° C. with 5% CO2. Nuclei were stained with 25 μg/mL Hoechst 33342 (Molecular Probes) and viewed using an oil immersion 100× objective on a fluorescence microscope.

reactive oxygen species = assay: ROS analysis, flow cytometry using H2DCF-DA; settings: engineered cells
From the text: 2′7′ dichlorodihydrofluorescein diacetate (H2DCF-DA) is a non-fluorescent cell permeable compound. The endogenous esterase enzyme inside the cell cleaves the diacetate part, and it can no longer pass out of the cell. Thus it accumulates in the cell. Then H2DCF reacts with ROS to form fluorescent dichlorofluorescene (DCF) which can be measured by flow cytometry in FL1 channel. • 1. Seed cells at 3×10^5 cells per dish in 60 mm dishes and allow to grow overnight. • 2. Treat with the test compound for different period of time (1-10 hr). • 3. Maintain one dish for untreated cells, compound treated cell and positive control dish (hydrogen peroxide treated) for each time point. • 4. Incubate the cells with 10 μM of H2DCF-DA for 10 minutes at 37° C. • 5. For positive control cells, after 5 minutes of H2DCF-DA loading, add 500 μM of hydrogen peroxide and incubate for 5 minutes further. • 6. Harvest the cell by trypsinization. • 7. Wash with cold PBS-twice. • 8. Resuspend the pellet in 100 μl of PBS and transfer into 5 ml FACS tube. • 9. Add 5 μl of propidium iodide (50 μg/ml) and incubate for 10 minutes on ice in dark. • 10. Add 400 μl of PBS and analyze by flow cytometry (Becton-Dickinson). • 11. Acquire the data and analyze using CellQuest software program. • 12. Take only propidium iodiode negative cells (viable cells) for the analysis for DCF staining using the FLI channel, PI in FL3 channel, plot a quadrant chart.

## CC[C@@]1(O)C(=O)OCc2c1cc1n(c2=O)Cc2cc3ccccc3nc2-1 [Camptothecin]
[1]
  activated caspase 3 (western blot): harbor activated caspase 3
[2]; camptothecin-treated (1 μM)
  percentage of cells in the M1 region (Annexin V staining): 38%
[3]
  DNA fragmentation (formation of a DNA ladder): induces DNA fragmentation
[4]
  cell death blocked by pan-caspase inhibitor: partially blocked
[5]; 1.1 μM camptothecin
  fragmented nuclei, % of total nuclei: 10-20%
[5]; 9 μM erastin or 1.1 μM CPT
  nuclear morphology (karyorhexis and margination of chromatin): karyorhexis and margination of chromatin were clearly visible

## COc1cccc2c1C(=O)c1c(O)c3c(c(O)c1C2=O)C[C@@](O)(C(C)=O)C[C@@H]3O[C@H]1C[C@H](N)[C@H](O)[C@H](C)O1 [Daunorubicin]
Reactive oxygen species
  formation of reactive oxygen species (ROS): did not observe the formation of ROS

## COc1cccc2c1C(=O)c1c(O)c3c(c(O)c1C2=O)C[C@@](O)(C(=O)CO)C[C@@H]3O[C@H]1C[C@H](N)[C@H](O)[C@H](C)O1 [Doxorubicin]
Reactive oxygen species
  formation of reactive oxygen species (ROS): did not observe the formation of ROS

## CCOc1ccccc1-n1c(C(C)N2CCN(C(=O)COc3ccc(Cl)cc3)CC2)nc2ccccc2c1=O (stereo not shown) [Erastin]
[2]; erastin-treated (9 μM)
  percentage of cells in the M1 region (Annexin V staining): 6%

## O=C1c2c(O)ccc(O)c2C(=O)c2c(NCCNCCO)ccc(NCCNCCO)c21 [Mitoxantrone]
Reactive oxygen species
  formation of reactive oxygen species (ROS): did not observe the formation of ROS
